Experimental findings from patent US5532228A, “Side-chain homologous vitamin D derivatives, process for their production, pharmaceutical preparations containing these derivatives and their use as pharmaceutical agents” (Schering Aktiengesellschaft, priority 1990, dated 1996) are described below.

Experiment [1] has as its system Keratinocytes of newborn mice. Kind of experiment: antiproliferative test: 3H-thymidine incorporation in DNA of keratinocytes. The format is cell-based, mouse (neonatal NMRI mice). To be noted: mouse keratinocytes, 24 hours with test substance in serum-free medium at 32.5° C., 4 hours 3H-methylthymidine, read-out: IC50 of inhibition of 3H-thymidine incorporation in DNA. The protocol:
Keratinocytes of newborn mice are prepared and cultivated in a modification of the method of Yuspa, S. and Harris, C.
Neonatal NMRI mice of both sexes are killed by decapitation, the skin is removed, washed in an antibiotic-antimycotic solution and, with the dermal side facing down, incubated overnight at 4° C. in dispase II solution (1.2 U/ml in tissue culture medium M199 +25 mmol/l HEPES+15% fetal calf serum (FCS)+50 U/ml of penicillin/streptomycin (P/S) (preparation medium, PM). The epidermis is removed and a single-cell suspension is produced by trypsinization. After centrifuging, the cell sediment is resuspended, the number of living, small, round cells is determined after trypan blue staining and the cells are sown in a density of 4×10^5 cells/cm^2 in Primaria 24-hole plates in tissue culture medium (M199+15% FCS+50 U/ml of P/S). […] Then, 0.4 microcuries/50 microliters of ^3 H-methylthymidine (40 Ci/mmol) is added. After 4 hours, the medium is suctioned off and the reaction is ended by adding 500 microliters of ice-cold 10% trichloroacetic acid (TCA). The cells are washed with TCA and PBS, lysed by incubation in a proteinase K-solution (10 mmol/l of tris-HCl, 10 mmol/l of EDTA, 10 mmol/l of NaCl, 0.2% triton-X 100, pH 8.0, 50 micrograms/ml of […]) and the lysate is clarified by centrifuging. In the supernatant fluid, the radioactivity is determined by scintillation photometry and, after specific staining of the DNA with diamidinophenylindole (DAPI), the DNA concentration is determined by fluorescence photometry.
In general terms: Incorporation of labelled thymidine or its analogues reports DNA synthesis.

Experiment [2] deals with HL 60 cells (human leukemia cells, promyelocytic cell line). Briefly: HL 60 differentiation induction into macrophages (NBT reduction to formazan). The class given is cell-based. To be noted: for differentiation-stimulating effect compared with calcitriol: HL 60 cells, versus calcitriol; for EC50: Homo sapiens, HL-60, 96 hours incubation, NBT-TPA, formazan at 650 nm, read-out: ED50 of differentiation induction of HL 60 cells into macrophages (formazan formed). Here is the method: To quantify the differentiation-stimulating effect of calcitriol analogs, the test indicated below was performed:
HL 60 cells are cultivated in tissue culture medium (RPM1--10% fetal calf serum) at 37° C. in an atmosphere of 5% CO2 in air.
The test substances are-dissolved in ethanol and diluted with tissue culture medium without phenol red to the desired concentration. The dilution stages are mixed with the cell suspension in a ratio of 1:10 and 100 microliters each of this cell suspension mixed with substance is pipetted into an indentation of a 96-hole plate. As a control, a cell suspension is mixed analogously with the solvent.
After incubation for 96 hours at 37° C. in 5% CO2 in air, 100 microliters of an NBT-TPA solution (nitro blue tetrazolium (NBT), final concentration in the batch 1 mg/ml, tetradecanoyl-phorbol myristate-13-acetate (TPA), final concentration in the batch 2×10^-7 mol/l) is pipetted into each indentation of the 96-hole plate into the cell suspension.
By incubation for 2 hours at 37° C. and 5% CO2 in air, the NBT is reduced to insoluble formazan because of the intracellular oxygen radical release, stimulated by TPA, in the cells differentiated into macrophages.
To end the reaction, the indentations of the 96-hole plate are drained and the adhering cells are fixed by adding methanol and dried after fixation.
To dissolve the intracellular formazan crystals formed, 100 microliters of potassium hydroxide (2 val/l) and 100 microliters of dimethyl sulfoxide are pipetted into each indentation and are exposed to ultrasonic waves for 1 minute. The concentration of formazan is measured by spectrophotometry at 650 nm.
The concentration of formazan formed is regarded as a measurement for the differentiation induction of the HL 60 cells into macrophages. The relative effectiveness of the test substance results from the quotient of ED50 test substance/ED50 calcitriol.

Structures are written as SMILES. Read-outs that look alike come from different tables or passages of the source.

For `C=C1/C(=C\C=C2/CCC[C@]3(C)[C@@H]([C@H](C)C/C=C/C(O)CC(C)C)CC[C@@H]23)C[C@@H](O)C[C@@H]1O` (single isomer, unassigned) [compound A], the IC50 in experiment [1] was 10 nM. Turning to `C=C1/C(=C\C=C2/CCC[C@]3(C)[C@@H]([C@H](C)C/C=C/[C@@H](O)CC4CC4)CC[C@@H]23)C[C@@H](O)C[C@@H]1O` [compound D, 26,27-cyclo-24a,24b-dihomo-9,10-secocholesta-5Z,7E,10(19),23E-tetraene-1(S),3(R),24a(S)-triol], in experiment [2], the “differentiation-stimulating effect compared with calcitriol” value is reported as “practically do not differ” and the EC50 worked out at 2.5 nM. Regarding `C=C1/C(=C\C=C2/CCC[C@]3(C)[C@@H]([C@H](C)C/C=C/[C@H](O)CC4CC4)CC[C@@H]23)C[C@@H](O)C[C@@H]1O` [compound C, 26,27-cyclo-24a,24b-dihomo-9,10-secocholesta-5Z,7E,10(19),23E-tetraene-1(S),3(R),24a(R)-triol], in experiment [2], the “differentiation-stimulating effect compared with calcitriol” value is given as “practically do not differ” and the EC50 is 2.2 nM. Turning to `C=C1/C(=C\C=C2/CCC[C@]3(C)[C@@H]([C@H](C)CCCC(C)(C)O)CC[C@@H]23)C[C@@H](O)C[C@@H]1O` [calcitriol, lalpha,25-dihydroxycholecalciferol, reference compound], the IC50 in experiment [1] (Keratinocyte) was 2 nM. The EC50 in experiment [2] is 1.8 nM. In the case of `C=C1/C(=C\C=C2/CCC[C@]3(C)[C@@H]([C@H](C)C/C=C/C(O)CC(C)C)CC[C@@H]23)C[C@@H](O)C[C@@H]1O` (single isomer, unassigned) [compound B], in experiment [1], the IC50 was determined as 3.2 nM.
